Results as given in PubChem BioAssay (NCI).
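How tested: cells in 96-well plates exposed to compound for 48 hours at five concentrations. Definition used: TGI = concentration required for complete inhibition of growth.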

How the values were obtained:
Assay in all cases: NCI-60 cell line screen, 48 h
NCI/ADR-RES ovarian = tested on: NCI/ADR-RES ovarian
A498 renal = tested on: A498 renal
SF-539 CNS = tested on: SF-539 CNS
HT29 colon = tested on: HT29 colon
SK-MEL-28 melanoma = tested on: SK-MEL-28 melanoma
SNB-75 CNS = tested on: SNB-75 CNS
HCT-15 colon = tested on: HCT-15 colon
KM12 colon = tested on: KM12 colon
SK-OV-3 ovarian = tested on: SK-OV-3 ovarian
CAKI-1 renal = tested on: CAKI-1 renal
OVCAR-4 ovarian = tested on: OVCAR-4 ovarian
PC-3 prostate = tested on: PC-3 prostate
SW-620 colon = tested on: SW-620 colon
UO-31 renal = tested on: UO-31 renal
OVCAR-5 ovarian = tested on: OVCAR-5 ovarian
COLO 205 colon = tested on: COLO 205 colon
ACHN renal = tested on: ACHN renal
DU-145 prostate = tested on: DU-145 prostate
SF-295 CNS = tested on: SF-295 CNS
SK-MEL-5 melanoma = tested on: SK-MEL-5 melanoma
786-0 renal = tested on: 786-0 renal
HCC-2998 colon = tested on: HCC-2998 colon
TK-10 renal = tested on: TK-10 renal
HCT-116 colon = tested on: HCT-116 colon
MDA-MB-231 breast = tested on: MDA-MB-231 breast
NCI-H226 lung = tested on: NCI-H226 lung
NCI-H460 lung = tested on: NCI-H460 lung
UACC-62 melanoma = tested on: UACC-62 melanoma
SN12C renal = tested on: SN12C renal
HOP-92 NSCLC = tested on: HOP-92 NSCLC
OVCAR-3 ovarian = tested on: OVCAR-3 ovarian
HOP-62 NSCLC = tested on: HOP-62 NSCLC
K-562 leukemia = tested on: K-562 leukemia
MDA-MB-435 = tested on: MDA-MB-435
A549 NSCLC = tested on: A549 NSCLC
LOX IMVI melanoma = tested on: LOX IMVI melanoma
BT-549 breast = tested on: BT-549 breast
MOLT-4 leukemia = tested on: MOLT-4 leukemia
SF-268 CNS = tested on: SF-268 CNS
RXF 393 renal = tested on: RXF 393 renal
NCI-H23 lung = tested on: NCI-H23 lung
M14 melanoma = tested on: M14 melanoma
CCRF-CEM leukemia = tested on: CCRF-CEM leukemia
MCF7 breast = tested on: MCF7 breast
U251 CNS = tested on: U251 CNS
SNB-19 CNS = tested on: SNB-19 CNS
RPMI-8226 leukemia = tested on: RPMI-8226 leukemia
EKVX NSCLC = tested on: EKVX NSCLC
UACC-257 melanoma = tested on: UACC-257 melanoma
SK-MEL-2 melanoma = tested on: SK-MEL-2 melanoma
T-47D breast = tested on: T-47D breast

Cc1cn2c(/C=N/N=C(N)N)c(-c3ccc([N+](=O)[O-])cc3)nc2s1
TGI (NCI/ADR-RES ovarian): > 100 µM | TGI (A498 renal): 3.01 µM | TGI (SF-539 CNS): 3.05 µM | TGI (HT29 colon): 2.67 µM | TGI (SK-MEL-28 melanoma): 3.05 µM | TGI (SNB-75 CNS): 1.87 µM | TGI (HCT-15 colon): 2.77 µM | TGI (KM12 colon): 1.72 µM | TGI (SK-OV-3 ovarian): 3.14 µM | TGI (CAKI-1 renal): 6.57 µM | TGI (OVCAR-4 ovarian): 0.316 µM | TGI (PC-3 prostate): 2.73 µM | TGI (SW-620 colon): 0.331 µM | TGI (UO-31 renal): 3.37 µM | TGI (OVCAR-5 ovarian): 2.14 µM | TGI (COLO 205 colon): 1.97 µM | TGI (ACHN renal): 2.82 µM

NC(N)=N/N=C/c1c(-c2ccc(Cl)c([N+](=O)[O-])c2)nc2sccn12
TGI (NCI/ADR-RES ovarian): > 100 µM | TGI (A498 renal): 3.14 µM | TGI (SF-539 CNS): 3.27 µM | TGI (HT29 colon): 2.8 µM | TGI (SK-MEL-28 melanoma): 27.8 µM | TGI (DU-145 prostate): 3.17 µM | TGI (SF-295 CNS): 3.47 µM | TGI (SK-MEL-5 melanoma): 3.26 µM | TGI (HCT-15 colon): 3.5 µM | TGI (786-0 renal): 3.15 µM | TGI (HCC-2998 colon): 2.94 µM | TGI (TK-10 renal): 3.16 µM | TGI (HCT-116 colon): 2.25 µM | TGI (MDA-MB-231 breast): 3.24 µM | TGI (NCI-H226 lung): 6.23 µM | TGI (NCI-H460 lung): 3.3 µM | TGI (OVCAR-4 ovarian): 4.49 µM | TGI (PC-3 prostate): 3.11 µM | TGI (UO-31 renal): 3.05 µM | TGI (UACC-62 melanoma): 3.27 µM | TGI (OVCAR-5 ovarian): 3.12 µM | TGI (SN12C renal): 3.29 µM | TGI (COLO 205 colon): 2.61 µM | TGI (ACHN renal): 3.15 µM

CN1C(=O)C(=Cc2ccc(Br)cc2)C(=O)N(C)C1=O
TGI (NCI/ADR-RES ovarian): > 100 µM | TGI (A498 renal): > 100 µM | TGI (HOP-92 NSCLC): > 100 µM | TGI (SK-MEL-28 melanoma): > 100 µM | TGI (DU-145 prostate): > 100 µM | TGI (OVCAR-3 ovarian): > 100 µM | TGI (SF-295 CNS): > 100 µM | TGI (HOP-62 NSCLC): > 100 µM | TGI (K-562 leukemia): > 100 µM | TGI (SNB-75 CNS): > 100 µM | TGI (MDA-MB-435): > 100 µM | TGI (SK-MEL-5 melanoma): > 100 µM | TGI (HCT-15 colon): > 100 µM | TGI (A549 NSCLC): > 100 µM | TGI (LOX IMVI melanoma): > 100 µM | TGI (KM12 colon): > 100 µM | TGI (BT-549 breast): > 100 µM | TGI (MOLT-4 leukemia): > 100 µM | TGI (786-0 renal): > 100 µM | TGI (SF-268 CNS): > 100 µM | TGI (HCC-2998 colon): > 100 µM | TGI (TK-10 renal): > 100 µM | TGI (RXF 393 renal): > 100 µM | TGI (HCT-116 colon): > 100 µM | TGI (NCI-H23 lung): > 100 µM | TGI (SK-OV-3 ovarian): > 100 µM | TGI (MDA-MB-231 breast): > 100 µM | TGI (M14 melanoma): > 100 µM | TGI (CAKI-1 renal): > 100 µM | TGI (NCI-H226 lung): > 100 µM | TGI (NCI-H460 lung): > 100 µM | TGI (OVCAR-4 ovarian): > 100 µM | TGI (CCRF-CEM leukemia): > 100 µM | TGI (MCF7 breast): > 100 µM | TGI (U251 CNS): > 100 µM | TGI (PC-3 prostate): > 100 µM | TGI (SW-620 colon): > 100 µM | TGI (UO-31 renal): > 100 µM | TGI (UACC-62 melanoma): > 100 µM | TGI (OVCAR-5 ovarian): > 100 µM | TGI (SNB-19 CNS): > 100 µM | TGI (RPMI-8226 leukemia): > 100 µM | TGI (EKVX NSCLC): > 100 µM | TGI (UACC-257 melanoma): > 100 µM | TGI (SK-MEL-2 melanoma): > 100 µM | TGI (COLO 205 colon): > 100 µM | TGI (T-47D breast): > 100 µM | TGI (ACHN renal): > 100 µM
